From US9512107B2, “Therapeutically active compositions and their methods of use” (Agios Pharmaceuticals, Inc., priority 2012, dated 2016)
Numbering of substitutions follows the chain as printed. Read-outs that look alike come from different tables or passages of the source.

Columns and labels:
[1] = target: T1, IDH2 R172K (Homo sapiens, UniProt P48735, R172K); assay: IDH2 R172K enzymatic assay (NADPH cofactor depletion, diaphorase/resazurin readout); type: biochemical; conditions: read-out: Enz R172K
T1 sequence (P48735 40-452 R172K): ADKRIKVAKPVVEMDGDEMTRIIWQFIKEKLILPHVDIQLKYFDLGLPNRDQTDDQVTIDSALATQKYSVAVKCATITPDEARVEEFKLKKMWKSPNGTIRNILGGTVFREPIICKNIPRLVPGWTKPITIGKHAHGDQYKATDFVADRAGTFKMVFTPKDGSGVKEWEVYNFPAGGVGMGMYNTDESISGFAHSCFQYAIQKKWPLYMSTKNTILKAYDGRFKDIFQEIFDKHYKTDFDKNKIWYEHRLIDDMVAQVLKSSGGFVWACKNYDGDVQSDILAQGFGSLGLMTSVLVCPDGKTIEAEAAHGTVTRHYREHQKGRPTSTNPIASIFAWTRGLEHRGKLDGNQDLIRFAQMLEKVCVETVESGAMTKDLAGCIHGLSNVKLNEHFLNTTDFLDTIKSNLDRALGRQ
Procedure, shortened: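 Residual NADPH is read out as resorufin fluorescence after quenching with 36 μg/ml diaphorase and 60 μM resazurin in stop mix. The stop follows a 1 h room-temperature reaction started by a substrate mix of NADPH (50 μM) and α-KG (6.3 mM), with compound preincubated with enzyme for 1 h beforehand.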

[2] = target: T2, IDH2 R140Q (Homo sapiens, UniProt P48735, R140Q); assay: IDH2 R140Q enzymatic assay (cofactor depletion, similar format); type: biochemical
T2 sequence (P48735 40-452 R140Q): T1 sequence (P48735 40-452 R172K) with R101Q, K133R

[3] = system: U87MG pLVX-IDH2 R140Q-neo cells; assay: U87MG pLVX-IDH2 R140Q-neo cell based assay, 2-HG in media by LC-MS at 48 hours; conditions: Homo sapiens, U-87 MG
Procedure, shortened: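 2-HG secreted into the medium was measured by LC-MS after 48 h of compound treatment (0.2% DMSO final) of U87MG pLVX-IDH2 R140Q-neo cells in DMEM/10% FBS. The same wells were assayed at 72 h by CellTiter-Glo luminescence for effects on growth.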

| Structure (SMILES) | IC50 [1] | IC50 ([2]; read-out: Enz R140Q) | IC50 [3] | IC50 ([2]; Enz R140Q) |
| --- | --- | --- | --- | --- |
| FC1(F)CCC(Nc2nc(Nc3ccncc3)nc(-c3ccccc3)n2)CC1 [Compound 254, N^2-(4,4-difluorocyclohexyl)-6-phenyl-N^4-(pyridin-4-yl)-1,3,5-triazine-2,4-diamine] | 100 to 1000 nM | < 100 nM | 100 to 1000 nM | – |
| CC(Nc1nc(Nc2ccncc2)nc(-c2ccccc2)n1)C(C)(C)C (stereo not drawn) [Compound 255, N^2-(3,3-dimethylbutan-2-yl)-6-phenyl-N^4-(pyridin-4-yl)-1,3,5-triazine-2,4-diamine] | 100 to 1000 nM | < 100 nM | < 100 nM | – |
| CC(Nc1nc(Nc2ccncc2)nc(-c2ccccc2)n1)C1CC1 (stereo not drawn) [Compound 257, N^2-(1-cyclopropylethyl)-6-phenyl-N^4-(pyridin-4-yl)-1,3,5-triazine-2,4-diamine] | 100 to 1000 nM | < 100 nM | 100 to 1000 nM | – |
| CC(C)(CO)CNc1nc(Nc2ccncc2)nc(-c2ccccc2)n1 [Compound 259, 2,2-dimethyl-3-(4-phenyl-6-(pyridin-4-ylamino)-1,3,5-triazin-2-ylamino)propan-1-ol] | > 10000 nM | 100 to 1000 nM | 100 to 1000 nM | – |
| CCCCNc1nc(Nc2ccnc(Cl)c2)nc(-c2ccccc2)n1 [Compound 260] | < 100 nM | < 100 nM | < 100 nM | – |
| CC(C)(CO)CNc1nc(Nc2ccnc(Cl)c2)nc(-c2ccccc2)n1 [Compound 261] | 100 to 1000 nM | < 100 nM | < 100 nM | – |
| CCOCCNc1nc(Nc2ccncc2)nc(-c2ccccc2)n1 [Compound 262, N^2-(2-ethoxyethyl)-6-phenyl-N^4-(pyridin-4-yl)-1,3,5-triazine-2,4-diamine] | 1000 to 10000 nM | 100 to 1000 nM | 100 to 1000 nM | – |
| FC(F)(F)CCNc1nc(Nc2ccncc2)nc(-c2ccccc2)n1 [Compound 263, 6-phenyl-N^2-(pyridin-4-yl)-N^4-(3,3,3-trifluoropropyl)-1,3,5-triazine-2,4-diamine] | 1000 to 10000 nM | < 100 nM | 100 to 1000 nM | – |
| CC(C)Nc1nc(Nc2cncnc2)nc(-c2ccccc2)n1 [Compound 266, N^2-isopropyl-6-phenyl-N^4-(pyrimidin-5-yl)-1,3,5-triazine-2,4-diamine] | 1000 to 10000 nM | < 100 nM | 100 to 1000 nM | – |
| O[C@@H]1CC[C@@H](Nc2nc(Nc3ccccc3)nc(-c3ccccc3)n2)C1 [Compound 267, (1R,3R)-3-(4-phenyl-6-(phenylamino)-1,3,5-triazin-2-ylamino)cyclopentanol] | 1000 to 10000 nM | < 100 nM | 100 to 1000 nM | – |
| c1ccc(Nc2nc(NC3CCCOC3)nc(-c3ccccc3)n2)cc1 (stereo not drawn) [Compound 268, N^2,6-diphenyl-N^4-(tetrahydro-2H-pyran-3-yl)-1,3,5-triazine-2,4-diamine] | 100 to 1000 nM | < 100 nM | 100 to 1000 nM | – |
| COCC(C)Nc1nc(Nc2ccccc2)nc(-c2ccccc2)n1 (stereo not drawn) [Compound 269, N^2-(1-methoxypropan-2-yl)-N^4,6-diphenyl-1,3,5-triazine-2,4-diamine] | 100 to 1000 nM | < 100 nM | < 100 nM | – |
| CC(C)Nc1nc(Nc2ccccc2)nc(-c2cc(C(F)(F)F)ccn2)n1 [Compound 270, N^2-isopropyl-N^4-phenyl-6-(4-(trifluoromethyl)pyridin-2-yl)-1,3,5-triazine-2,4-diamine] | 100 to 1000 nM | < 100 nM | 100 to 1000 nM | – |
| CC(C)Nc1nc(Nc2ccnc(C(F)(F)F)c2)nc(-c2cccc(C(F)(F)F)n2)n1 [Compound 335, N^2-isopropyl-6-(6-(trifluoromethyl)pyridin-2-yl)-N^4-(2-(trifluoromethyl)pyridin-4-yl)-1,3,5-triazine-2,4-diamine] | < 100 nM | 100 to 1000 nM | < 100 nM | – |
| FC(F)(F)c1cc(Nc2nc(NC3COC3)nc(-c3ccccn3)n2)ccn1 [Compound 336, N^2-(oxetan-3-yl)-6-(pyridin-2-yl)-N^4-(2-(trifluoromethyl)pyridin-4-yl)-1,3,5-triazine-2,4-diamine] | 100 to 1000 nM | 100 to 1000 nM | < 100 nM | – |
| FC(F)(F)c1cccc(-c2nc(Nc3cnoc3)nc(NC3COC3)n2)n1 [Compound 337, N^2-(isoxazol-4-yl)-N^4-(oxetan-3-yl)-6-(6-(trifluoromethyl)pyridin-2-yl)-1,3,5-triazine-2,4-diamine] | 1000 to 10000 nM | 100 to 1000 nM | 100 to 1000 nM | – |
| CC(C)Nc1nc(Nc2cc(F)cc(F)c2)nc(-c2cccc(Cl)n2)n1 [Compound 340, 6-(6-chloropyridin-2-yl)-N^2-(3,5-difluorophenyl)-N^4-isopropyl-1,3,5-triazine-2,4-diamine] | < 100 nM | < 100 nM | < 100 nM | – |
| CC(C)Nc1nc(Nc2cccc(S(=O)(=O)NC3CC3)c2)nc(-c2ccccc2)n1 [Compound 341, N-cyclopropyl-3-(4-(isopropylamino)-6-phenyl-1,3,5-triazin-2-ylamino)benzenesulfonamide] | 100 to 1000 nM | < 100 nM | < 100 nM | – |
| CC(C)Nc1nc(Nc2cccc(S(=O)(=O)NC(C)(C)C)c2)nc(-c2ccccc2)n1 [Compound 342, N-tert-butyl-3-(4-(isopropylamino)-6-phenyl-1,3,5-triazin-2-ylamino)benzenesulfonamide] | 1000 to 10000 nM | 100 to 1000 nM | 1000 to 10000 nM | – |
| CC(C)Nc1nc(Nc2ccc(F)nc2)nc(-c2cccc(Cl)n2)n1 [Compound 344, 6-(6-chloropyridin-2-yl)-N^2-(6-fluoropyridin-3-yl)-N^4-isopropyl-1,3,5-triazine-2,4-diamine] | < 100 nM | 100 to 1000 nM | < 100 nM | – |
| Fc1ccc(Nc2nc(NC3CCC3)nc(-c3ccccn3)n2)cn1 [Compound 345, N^2-cyclobutyl-N^4-(6-fluoropyridin-3-yl)-6-(pyridin-2-yl)-1,3,5-triazine-2,4-diamine] | 100 to 1000 nM | 100 to 1000 nM | 100 to 1000 nM | – |
| Cc1cc(Nc2nc(NC(=O)C(C)(C)C)nc(-c3ccccc3)n2)ccn1 [Compound 350] | 1000 to 10000 nM | 100 to 1000 nM | 100 to 1000 nM | – |
| CC(C)Nc1nc(Nc2cccc(S(C)(=O)=O)c2)nc(-c2cccc(C(F)(F)F)n2)n1 [Compound 358, N^2-isopropyl-N^4-(3-(methylsulfonyl)phenyl)-6-(6-(trifluoromethyl)pyridin-2-yl)-1,3,5-triazine-2,4-diamine] | 100 to 1000 nM | 100 to 1000 nM | < 100 nM | – |
| CC(C)Nc1nc(Nc2cncc(C(F)(F)F)c2)nc(-c2ccccc2F)n1 [Compound 372, 6-(2-fluorophenyl)-N^2-isopropyl-N^4-(5-(trifluoromethyl)pyridin-3-yl)-1,3,5-triazine-2,4-diamine] | < 100 nM | < 100 nM | < 100 nM | – |
| CC(C)Nc1nc(Nc2cncc(F)c2)nc(-c2ccccc2F)n1 [Compound 374, 6-(2-fluorophenyl)-N^2-(5-fluoropyridin-3-yl)-N^4-isopropyl-1,3,5-triazine-2,4-diamine] | < 100 nM | < 100 nM | < 100 nM | – |
| CC(C)Nc1nc(Nc2cncc(C(F)(F)F)c2)nc(-c2cccc(C(F)(F)F)n2)n1 [Compound 386, N^2-isopropyl-6-(6-(trifluoromethyl)pyridin-2-yl)-N^4-(5-(trifluoromethyl)pyridin-3-yl)-1,3,5-triazine-2,4-diamine] | < 100 nM | 100 to 1000 nM | < 100 nM | – |
| CC(C)(O)CNc1nc(Nc2ccnc(C(F)(F)F)c2)nc(-c2cccc(C(F)(F)F)n2)n1 [Compound 409, 2-methyl-1-(4-(6-(trifluoromethyl)pyridin-2-yl)-6-(2-(trifluoromethyl)pyridin-4-ylamino)-1,3,5-triazin-2-ylamino)propan-2-ol] | 100 to 1000 nM | – | < 100 nM | 100 to 1000 nM |
| CC(C)(C)OC(=O)Nc1nc(Nc2ccccc2)nc(-c2ccccc2)n1 [Compound 416, Tert-butyl 4-phenyl-6-(phenylamino)-1,3,5-triazin-2-ylcarbamate] | 100 to 1000 nM | < 100 nM | < 100 nM | – |
| CC(C)Nc1nc(Nc2ccc(S(C)(=O)=O)cc2)nc(-c2ccccc2)n1 [Compound 452, N2-isopropyl-N4-(4-(methylsulfonyl)phenyl)-6-phenyl-1,3,5-triazine-2,4-diamine] | > 10000 nM | 100 to 1000 nM | 1000 to 10000 nM | – |
